According to patent US20030215462A1, “Use of UGT inhibitors to increase bioavailability” (priority 2001, published 2003):
Several values for one entry are separate records, joined by “and”; a condition that tells them apart may be missing. Equal values may be shown once.

How the values were obtained:
[1] = target: T1, UGT1A1 (Homo sapiens, UniProt P22309); test: Inhibition of raloxifene glucuronidation by recombinant UGT1A1 Supersomes; conditions: human; for activity at 15 min, 2 μM: inhibitor 2 μM; for activity at 15 min, 5 µM: inhibitor 5 μM; for activity at 15 min, 10 µM: inhibitor 10 μM; for activity at 15 min, 25 µM: inhibitor 25 μM; for activity at 15 min, 50 µM: inhibitor 50 μM
T1 sequence (P22309 26-533): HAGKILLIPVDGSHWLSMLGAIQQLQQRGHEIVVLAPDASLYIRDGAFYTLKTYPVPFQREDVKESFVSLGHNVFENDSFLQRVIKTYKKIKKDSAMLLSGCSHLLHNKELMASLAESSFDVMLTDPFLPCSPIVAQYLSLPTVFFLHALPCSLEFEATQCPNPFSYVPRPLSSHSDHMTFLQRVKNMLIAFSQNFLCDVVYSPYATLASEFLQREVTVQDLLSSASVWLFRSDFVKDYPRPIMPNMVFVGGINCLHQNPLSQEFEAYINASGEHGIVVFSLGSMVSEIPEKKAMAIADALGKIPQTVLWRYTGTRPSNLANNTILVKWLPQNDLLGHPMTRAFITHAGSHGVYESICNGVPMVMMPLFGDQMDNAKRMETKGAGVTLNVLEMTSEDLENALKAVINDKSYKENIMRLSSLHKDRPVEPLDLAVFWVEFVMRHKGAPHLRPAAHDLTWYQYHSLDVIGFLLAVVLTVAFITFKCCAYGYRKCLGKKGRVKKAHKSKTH
Description: (§2) Compounds were eluted using a binary solvent gradient system. Solvent A was water brought to pH 8 with NH4OH. Solvent B was methanol. Solvent flow rate was 1 ml/min and the column temperature was maintained at 50° C. Detection was at 280 nm. […] The system was then returned to the initial conditions and equilibrated for 3 min.

[2] = tested on: T2, UGT enzymes of human liver microsomes; test: Kinetic and Ki studies of inhibitors of 7-HFC glucuronidation in human liver microsomes; type: biochemical; conditions: 7-HFC 20-500 μM
T2 construct: percentage of control metabolism, 7-HFC glucuronidation; percentage of control metabolism, 7-HFC glucuronidation

[3] = target: T3, UGT1A3 (Homo sapiens, UniProt P35503); test: Inhibition of raloxifene glucuronidation by recombinant UGT1A3 Supersomes; conditions: human; for activity at 15 min, 10 µM: inhibitor 10 μM; for activity at 15 min, 25 µM: inhibitor 25 μM; for activity at 15 min, 50 µM: inhibitor 50 μM
T3 sequence (P35503 29-534): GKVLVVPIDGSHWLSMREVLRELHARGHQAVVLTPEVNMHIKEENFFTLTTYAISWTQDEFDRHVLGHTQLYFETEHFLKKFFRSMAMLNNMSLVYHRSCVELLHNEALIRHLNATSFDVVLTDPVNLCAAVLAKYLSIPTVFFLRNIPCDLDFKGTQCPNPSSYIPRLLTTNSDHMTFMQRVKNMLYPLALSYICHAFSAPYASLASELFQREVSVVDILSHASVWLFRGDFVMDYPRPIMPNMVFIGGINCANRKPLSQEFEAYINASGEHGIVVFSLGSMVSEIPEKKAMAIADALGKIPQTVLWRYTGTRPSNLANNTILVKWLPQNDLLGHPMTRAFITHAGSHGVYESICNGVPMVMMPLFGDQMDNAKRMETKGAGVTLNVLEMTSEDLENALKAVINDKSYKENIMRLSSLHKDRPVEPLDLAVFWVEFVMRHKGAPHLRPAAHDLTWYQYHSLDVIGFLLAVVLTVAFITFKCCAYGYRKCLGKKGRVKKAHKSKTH
Description: as §2

[4] = target: T2, UGT enzymes of human liver microsomes; test: Inhibition of 7-HFC glucuronidation in human liver microsomes; type: biochemical; conditions: for % of control metabolism (SD, n = 3), 7-HFC glucuronidation: human liver microsomes 100 μg/ml
[5] = tested on: UGT enzymes of human liver microsomes; test: Inhibition of raloxifene glucuronidation (G1, G2) in human liver microsomes; type: biochemical
From the text: Compounds were eluted using a binary solvent gradient system. […] Solvent B was methanol. […] Detection was at 280 nm.

[6] = tested on: UGT enzymes of pooled human jejunum microsomes; test: Inhibition of estradiol (E2) glucuronidation in pooled human jejunum microsomes; type: biochemical; conditions: jejunum HJ61; E2 50 μM; inhibitor 10 μM
From the text: (§1) Compounds were eluted using a binary solvent gradient system where solvent A was dilute phosphoric acid (pH 3) and solvent B was 80:20 acetonitrile-methanol. […] Detection was at 280 nm.

[7] = tested on: T4, UGT enzymes of human liver microsomes; test: Inhibition of 2ME2 glucuronidation (MG1, MG2) in human liver microsomes; type: biochemical; conditions: liver 062101, 2ME2 50 μM
T4 construct: other: liver 062101
From the text: as §1

[8] = Supersomes with recombinant human UGT1A1, pH 7.5, probe raloxifene 50 μM, formation of glucuronide G1, % of control metabolism, raloxifene G1, UGT1A1
[9] = Supersomes with recombinant human UGT1A1, pH 7.5, probe raloxifene 50 μM, formation of glucuronide G1, Inhibition of raloxifene glucuronidation, G1, UGT1A1, G1, raloxifene 50 μM, 250 μg/ml Supersomes, 1 mM UDPGA, 15 min
[10] = Supersomes with recombinant human UGT1A1, pH 7.5, probe raloxifene 50 μM, formation of glucuronide G2, % of control metabolism, raloxifene G2, UGT1A1
[11] = recombinant UGT1A1 Supersomes, pH 7.5, probe raloxifene 50 μM (formation of glucuronide G1), Inhibition of raloxifene glucuronidation, G1, UGT1A1, G1, raloxifene 50 μM, 250 μg/ml Supersomes, 1 mM UDPGA, 15 min
[12] = recombinant UGT1A1 Supersomes, pH 7.5, probe raloxifene 50 μM (formation of glucuronide G2), Inhibition of raloxifene glucuronidation, G2, UGT1A1, G2, raloxifene 50 μM, 250 μg/ml Supersomes, 1 mM UDPGA, 15 min
[13] = Supersomes with recombinant human UGT1A3, pH 7.5, probe raloxifene 50 μM, formation of glucuronide G1, % of control metabolism, raloxifene G1, UGT1A3
[14] = Supersomes with recombinant human UGT1A3, pH 7.5, probe raloxifene 50 μM, formation of glucuronide G2, % of control metabolism, raloxifene G2, UGT1A3
[15] = recombinant UGT1A3 Supersomes, pH 7.5, probe raloxifene 50 μM (formation of glucuronide G1), Inhibition of raloxifene glucuronidation, G1, UGT1A3, G1, raloxifene 50 μM, 250 μg/ml Supersomes, 1 mM UDPGA, 15 min
[16] = recombinant UGT1A3 Supersomes, pH 7.5, probe raloxifene 50 μM (formation of glucuronide G2), Inhibition of raloxifene glucuronidation, G2, UGT1A3, G2, raloxifene 50 μM, 250 μg/ml Supersomes, 1 mM UDPGA, 15 min
[17] = liver lot 032101, inhibitor 10 μM
[18] = liver lot 062101, inhibitor 10 μM
[19] = liver lot 083000, inhibitor 10 μM
[20] = raloxifene 50 μM, inhibitor 10 μM
[21] = raloxifene 50 μM, inhibitor 25 μM
[22] = raloxifene 50 μM, inhibitor 50 μM
[23] = raloxifene 50 μM, inhibitor 100 μM

## O=C(OC[C@H]1O[C@@H](OC(=O)c2cc(O)c(O)c(OC(=O)c3cc(O)c(O)c(O)c3)c2)[C@H](OC(=O)c2cc(O)c(O)c(OC(=O)c3cc(O)c(O)c(O)c3)c2)[C@@H](OC(=O)c2cc(O)c(O)c(OC(=O)c3cc(O)c(O)c(O)c3)c2)[C@@H]1OC(=O)c1cc(O)c(O)c(OC(=O)c2cc(O)c(O)c(O)c2)c1)c1cc(O)c(O)c(OC(=O)c2cc(O)c(O)c(O)c2)c1 [Tannic acid]
[1]; Supersomes with recombinant human UGT1A1, pH 7.5, probe raloxifene 50 μM, formation of glucuronide G1
  activity at 15 min: 17%
[1]; [8]
  activity at 15 min, 2 μM: 71%
  activity at 15 min, 5 µM: 39%
  activity at 15 min, 10 µM: 17%
  activity at 15 min, 25 µM: 4%
  activity at 15 min, 50 µM: 0.4%
[1]; [9]
  activity at 15 min, 25 µM: 4%
  activity at 15 min, 50 µM: 0.4%
[1]; [10]
  activity at 15 min, 2 μM: 71%
  activity at 15 min, 5 µM: 38%
  activity at 15 min, 10 µM: 17%
  activity at 15 min, 25 µM: 8%
  activity at 15 min, 50 µM: 0.9%
[1]; [11]
  activity at 15 min, 2 μM: 71%
  activity at 15 min, 5 µM: 39%
[1]; recombinant UGT1A1 Supersomes, pH 7.5, probe raloxifene 50 μM (formation of glucuronide G2)
  activity at 15 min: 17%
[1]; [12]
  activity at 15 min, 2 μM: 71%
  activity at 15 min, 5 µM: 38%
  activity at 15 min, 25 µM: 8%
  activity at 15 min, 50 µM: 0.9%
[2]
  Vmax of 7-HFC glucuronidation (fit of the experiment with this inhibitor): 57 ± 3 nmol/min/mg
[2]; read-out: Km of 7-HFC glucuronidation (fit of the experiment with this inhibitor)
  Km: 85 ± 7 µM
[3]; [13]
  activity at 15 min, 10 µM: 48%
  activity at 15 min, 25 µM: 25%
  activity at 15 min, 50 µM: 3%
[3]; [14]
  activity at 15 min, 10 µM: 64%
  activity at 15 min, 25 µM: 38%
  activity at 15 min, 50 µM: 5%
[3]; [15]
  activity at 15 min, 10 µM: 48%
  activity at 15 min, 25 µM: 25%
  activity at 15 min, 50 µM: 3%
[3]; [16]
  activity at 15 min, 10 µM: 64%
  activity at 15 min, 25 µM: 38%
  activity at 15 min, 50 µM: 5%
[4]; 7-HFC 50 μM, 1 mM UDPGA, 15 min
  IC50: 10 µM
[4]; inhibitor 25 μM
  percentage of control metabolism, 7-HFC glucuronidation: 14 (1) % and 18 (0) %
[4]; inhibitor 25 μM, 7-HFC 50 μM, 15 min
  % of control metabolism (SD, n = 3), 7-HFC glucuronidation: 14 (1), % and 18 (0) %
[4]; inhibitor 50 μM
  percentage of control metabolism, 7-HFC glucuronidation: 2 (0) %
[4]; inhibitor 50 μM, 7-HFC 50 μM, 15 min
  % of control metabolism (SD, n = 3), 7-HFC glucuronidation: 2 (0) %
[4]; inhibitor 100 μM
  percentage of control metabolism, 7-HFC glucuronidation: 0 (0) %
[4]; inhibitor 100 μM, 7-HFC 50 μM, 15 min
  % of control metabolism (SD, n = 3), 7-HFC glucuronidation: 0 (0) %
[4]; inhibitor 200 μM
  percentage of control metabolism, 7-HFC glucuronidation: 0 (0) %
[4]; inhibitor 200 μM, 7-HFC 50 μM, 15 min
  % of control metabolism (SD, n = 3), 7-HFC glucuronidation: 0 (0) %
[4]; inhibitor 500 μM
  percentage of control metabolism, 7-HFC glucuronidation: 0 (0) %
[4]; inhibitor 500 μM, 7-HFC 50 μM, 15 min
  % of control metabolism (SD, n = 3), 7-HFC glucuronidation: 0 (0) %
[5]; [17]
  % of control metabolism, raloxifene G1: 51 (4) %
  % of control metabolism, raloxifene G2: 59 (3) %
[5]; [18]
  % of control metabolism, raloxifene G1: 61 (4) %
  % of control metabolism, raloxifene G2: 54 (4) %
[5]; [19]
  % of control metabolism, raloxifene G1: 27 (1) %
  % of control metabolism, raloxifene G2: 30 (1) %
[5]; [20]
  % of control metabolism, raloxifene G1: 27 (1) %
  % of control metabolism, raloxifene G2: 30 (1) %
[5]; [21]
  % of control metabolism, raloxifene G1: 7 (1) %
  % of control metabolism, raloxifene G2: 12 (2) %
[5]; [22]
  % of control metabolism, raloxifene G1: 0 (0), 0 (0) %
  % of control metabolism, raloxifene G2: 0 (0), 0 (0) %
[5]; [23]
  % of control metabolism, raloxifene G1: 0 (0), 0 (0) %
  % of control metabolism, raloxifene G2: 0 (0), 0 (0) %
[6]
  residual metabolism (% of control), E2-3-β-D-glucuronide: 18 (1) %
  residual metabolism (% of control), E2-17-β-D-glucuronide: 17 (1) %
[7]; inhibitor 25 μM
  residual metabolism (% of control), 2ME2 MG1: 13 (1) %
  residual metabolism (% of control), 2ME2 MG2: 49 (7) %
[7]; inhibitor 50 μM
  residual metabolism (% of control), 2ME2 MG1: <LOQ
  residual metabolism (% of control), 2ME2 MG2: 28 (1) %
